# Test results reported in PubChem BioAssay (NCI).
#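 Each compound was tested at five concentrations against cells in 96-well plates for 48 hours. The concentration for full growth arrest is given as TGI.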
# Key:
# Assay in all cases: DTP human tumour cell line panel, 48 h
# [1] = system: ACHN renal
# [2] = system: OVCAR-3 ovarian
# [3] = system: MALME-3M melanoma
# [4] = system: T-47D breast
# [5] = system: TK-10 renal
# [6] = system: A498 renal
# [7] = system: LOX IMVI melanoma
# [8] = system: HCC-2998 colon
# [9] = system: SN12C renal
# [10] = system: HOP-62 NSCLC
# [11] = system: NCI-H23 lung
# [12] = system: RPMI-8226 leukemia
# [13] = system: OVCAR-8 ovarian
# [14] = system: HCT-15 colon
# [15] = system: SK-MEL-2 melanoma
# [16] = system: PC-3 prostate
# [17] = system: HCT-116 colon
# [18] = system: SF-295 CNS
# [19] = system: EKVX NSCLC
# [20] = system: HS 578T breast
# [21] = system: NCI-H226 lung
# [22] = system: SK-OV-3 ovarian
# [23] = system: K-562 leukemia
# [24] = system: NCI-H460 lung
# [25] = system: UACC-257 melanoma
# [26] = system: MDA-MB-435
# [27] = system: NCI-H522 lung
# [28] = system: RXF 393 renal
# [29] = system: HT29 colon
# [30] = system: SNB-75 CNS
# [31] = system: SF-539 CNS
# [32] = system: HL-60(TB) leukemia
# [33] = system: COLO 205 colon
# [34] = system: MDA-N
# [35] = system: DU-145 prostate
# [36] = system: SW-620 colon
# [37] = system: M14 melanoma
# [38] = system: BT-549 breast
# [39] = system: MDA-MB-231 breast
# [40] = system: MOLT-4 leukemia
# [41] = system: NCI/ADR-RES ovarian
# [42] = system: UO-31 renal
# [43] = system: IGROV1 ovarian
# [44] = system: 786-0 renal
# [45] = system: CAKI-1 renal
# [46] = system: A549 NSCLC
# [47] = system: SNB-19 CNS
# [48] = system: HOP-92 NSCLC
# [49] = system: SK-MEL-5 melanoma
# [50] = system: U251 CNS
# [51] = system: KM12 colon
# [52] = system: OVCAR-5 ovarian
# [53] = system: MCF7 breast
# [54] = system: SR leukemia
# [55] = system: UACC-62 melanoma
# [56] = system: CCRF-CEM leukemia
# [57] = system: SF-268 CNS
# [58] = system: OVCAR-4 ovarian
# [59] = system: SK-MEL-28 melanoma
# [60] = system: XF 498 CNS
# [61] = system: DMS 273 small cell lung
# [62] = system: DLD-1 colon
# [63] = system: KM20L2 colon
# [64] = system: DMS 114 small cell lung
# [65] = system: LXFL 529 NSCLC
smiles,measurement,setting,value
CC(=O)O[C@H]1CC[C@@]2(C)C(=CC[C@@H]3[C@@H]2CC[C@]2(C)C(=N/O)/C(=C\c4ccccc4)C[C@@H]32)C1,TGI,[1],> 100 µM
same,TGI,[2],54.7 µM
same,TGI,[3],24.7 µM
same,TGI,[4],> 93.7 µM
same,TGI,[5],78.8 µM
same,TGI,[6],33 µM
same,TGI,[7],26 µM
same,TGI,[8],32 µM
same,TGI,[9],38.1 µM
same,TGI,[10],71.6 µM
same,TGI,[11],> 100 µM
same,TGI,[12],> 100 µM
same,TGI,[13],> 100 µM
same,TGI,[14],> 100 µM
same,TGI,[15],39.2 µM
same,TGI,[16],> 100 µM
same,TGI,[17],> 100 µM
same,TGI,[18],67.1 µM
same,TGI,[19],51.2 µM
same,TGI,[20],50.9 µM
same,TGI,[21],44.9 µM
same,TGI,[22],> 100 µM
same,TGI,[23],> 100 µM
same,TGI,[24],97.9 µM
same,TGI,[25],37.3 µM
same,TGI,[26],> 33.1 µM
same,TGI,[27],21.2 µM
same,TGI,[28],40 µM
same,TGI,[29],> 100 µM
same,TGI,[30],> 100 µM
same,TGI,[31],83.3 µM
same,TGI,[32],49.3 µM
same,TGI,[33],32 µM
same,TGI,[34],99.4 µM
same,TGI,[35],> 91 µM
same,TGI,[36],> 60.9 µM
same,TGI,[37],39.3 µM
same,TGI,[38],> 100 µM
same,TGI,[39],73.2 µM
same,TGI,[40],> 28.5 µM
same,TGI,[41],> 72.9 µM
same,TGI,[42],> 59.2 µM
same,TGI,[43],> 100 µM
same,TGI,[44],> 55.4 µM
same,TGI,[45],> 100 µM
same,TGI,[46],97.5 µM
same,TGI,[47],> 100 µM
same,TGI,[48],88.5 µM
same,TGI,[49],11.4 µM
same,TGI,[50],> 81.5 µM
same,TGI,[51],10.6 µM
same,TGI,[52],70.2 µM
same,TGI,[53],> 100 µM
same,TGI,[54],> 42.3 µM
same,TGI,[55],31.9 µM
same,TGI,[56],> 100 µM
same,TGI,[57],> 80.8 µM
same,TGI,[58],> 100 µM
same,TGI,[59],> 56.3 µM
C=C1CC(CC)(CCN2C(=O)c3ccccc3C2=O)OC1=O (stereo unspecified),TGI,[1],28.6 µM
same,TGI,[60],27.1 µM
same,TGI,[3],27.3 µM
same,TGI,[5],32.3 µM
same,TGI,[6],36.8 µM
same,TGI,[7],29.6 µM
same,TGI,[8],32.1 µM
same,TGI,[9],45.5 µM
same,TGI,[10],> 100 µM
same,TGI,[61],24.6 µM
same,TGI,[11],29.9 µM
same,TGI,[12],> 100 µM
same,TGI,[13],36.2 µM
same,TGI,[14],31.6 µM
same,TGI,[15],29.2 µM
same,TGI,[17],25.4 µM
same,TGI,[18],> 100 µM
same,TGI,[19],31.1 µM
same,TGI,[21],40.6 µM
same,TGI,[23],> 100 µM
same,TGI,[62],80.7 µM
same,TGI,[63],46.1 µM
same,TGI,[24],> 100 µM
same,TGI,[25],27 µM
same,TGI,[27],11.8 µM
same,TGI,[64],43 µM
same,TGI,[28],29.9 µM
same,TGI,[29],37.3 µM
same,TGI,[30],> 100 µM
same,TGI,[31],46.6 µM
same,TGI,[32],> 100 µM
same,TGI,[33],30.3 µM
same,TGI,[65],27.1 µM
same,TGI,[36],22.9 µM
same,TGI,[37],22.8 µM
same,TGI,[40],> 100 µM
same,TGI,[42],36.2 µM
same,TGI,[43],> 100 µM
same,TGI,[44],24.2 µM
same,TGI,[45],7.59 µM
same,TGI,[46],> 100 µM
same,TGI,[49],26.1 µM
same,TGI,[51],45.1 µM
same,TGI,[54],> 100 µM
same,TGI,[55],26.3 µM
same,TGI,[56],> 100 µM
same,TGI,[57],21.4 µM
same,TGI,[58],27.8 µM
CSC(=S)Nc1cc(C)cc(C)n1,TGI,[1],> 31.6 µM
same,TGI,[2],> 31.6 µM
same,TGI,[3],> 31.6 µM
same,TGI,[4],> 31.6 µM
same,TGI,[5],> 31.6 µM
same,TGI,[6],> 100 µM
same,TGI,[7],> 31.6 µM
same,TGI,[8],> 31.6 µM
same,TGI,[9],> 31.6 µM
same,TGI,[10],> 100 µM
same,TGI,[11],> 31.6 µM
same,TGI,[12],> 31.6 µM
same,TGI,[13],> 31.6 µM
same,TGI,[14],> 31.6 µM
same,TGI,[15],> 31.6 µM
same,TGI,[16],> 31.6 µM
same,TGI,[17],> 10 µM
same,TGI,[18],> 31.6 µM
same,TGI,[19],> 31.6 µM
same,TGI,[20],> 31.6 µM
same,TGI,[21],> 31.6 µM
same,TGI,[22],> 31.6 µM
same,TGI,[23],> 31.6 µM
same,TGI,[24],> 31.6 µM
same,TGI,[25],> 31.6 µM
same,TGI,[26],> 31.6 µM
same,TGI,[27],> 31.6 µM
same,TGI,[28],> 31.6 µM
same,TGI,[29],> 31.6 µM
same,TGI,[30],> 10 µM
same,TGI,[31],> 100 µM
same,TGI,[32],> 31.6 µM
same,TGI,[33],> 31.6 µM
same,TGI,[34],> 31.6 µM
same,TGI,[35],> 31.6 µM
same,TGI,[36],> 31.6 µM
same,TGI,[37],> 31.6 µM
same,TGI,[38],> 100 µM
same,TGI,[39],> 100 µM
same,TGI,[40],> 31.6 µM
same,TGI,[41],> 31.6 µM
same,TGI,[42],> 31.6 µM
same,TGI,[43],> 100 µM
same,TGI,[44],> 31.6 µM
same,TGI,[45],> 31.6 µM
same,TGI,[46],> 31.6 µM
same,TGI,[47],> 31.6 µM
same,TGI,[48],> 31.6 µM
same,TGI,[49],> 100 µM
same,TGI,[50],> 31.6 µM
same,TGI,[51],> 31.6 µM
same,TGI,[52],> 31.6 µM
same,TGI,[53],> 31.6 µM
same,TGI,[54],> 10 µM
same,TGI,[55],> 31.6 µM
same,TGI,[56],> 31.6 µM
same,TGI,[57],> 31.6 µM
same,TGI,[58],> 31.6 µM
same,TGI,[59],> 31.6 µM
